Laboratory results reported in patent publication US5389638A, “Tetrahydroisoquinolines as alpha-2 antagonists and biogenic amine uptake inhibitors” (Abbott Laboratories, priority 1993, dated 1995).
pIC50, pKi: −log10 of the molar value. Where a name gives a salt, the structure may show the parent alone. Read-outs that look alike come from different tables or passages of the source.

Legend:
alpha-2 receptor = alpha-2 receptor radioligand binding, rat cerebral cortices, [3H]-rauwolscine; conditions: for pKi: rat cerebral cortices, [3H]-rauwolscine, read-out: Radioligand binding Ki α2; for Alpha-2 selectivity Ki α1/Ki α2: ratio Ki α1/Ki α2
dopamine uptake = assay: inhibition of [3H]-amine uptake by synaptosome preparations, striatum (dopamine); assay type: biochemical, rat (male Sprague-Dawley); conditions: striatum synaptosomes, [3H]-amine approx. 100 nM, 4 min, 37° C.; read-out: Biogenic amine uptake IC50 DA
Description: (§1) The primary method of evaluation of biogenic amine uptake activity has been the in vitro determination of the inhibition of radioactive amine uptake by synaptosome preparations of brain tissue. Basic procedures used are those described by Snyder and Coyle (Snyder, S. H. and J. T. Coyle, Regional Differences in ^3 H-Norepinephrine and ^3 H-Dopamine Uptake into Rat Brain Homogenates, Journal of Pharmacology and Experimental Therapeutics 1969, 165: 78-86) and Wong et al. (Wong, D. T., J-S. Horng and R. W. Fuller, Kinetics of Norepinephrine Accumulation into Synaptosomes of Rat Brain-Effects of Amphetamine and Chloroamphetamines, Biochemical Pharmacology 1973, 22:311-322). Briefly, male Sprague-Dawley rats were decapitated and regions of their brains dissected according to the procedures of Glowinski and Iversen (Glowinski, J. and L. L. Iversen, Regional Studies of Catecholamines in the Rat Brain--I: The Disposition of [^3 H]-Norepinephrine, [^3 H]-Dopamine and [^3 H]-DOPA in Various Regions of the Brain, Journal of Neurochemistry 1966, 13: 655-669). Hypothalamus (norepinephrine-), cortex (serotonin) and striatum (dopamine-uptake) were homogenized in 10, 5, and 20 volumes, respectively,of 0.32M sucrose using a Teflon/glass Potter-Elvehjem tissue grinder. Samples were centrifuged at 1000×G for 10 minutes and the supernatants harvested and used in the assay. Aliquots of tissue ([…]) were added to 750 mL of Kreb's solution (composition in mM; sodium chloride 118, potassium chloride 4.0, calcium chloride 1.13, potassium dihydrogen phosphate 1.12, magnesium sulfate 1.20, sodium bicarbonate 2.4, D-glucose 5.0, disodium ethylenediaminetetraacetic acid 1.5, ascorbic acid 1.0, and Pargyline, 12.5 mM, pH=7.4, aerated with 95% oxygen, 5% carbon dioxide), 50 mL of test compound diluted in 0.3 mM ascorbic acid, and […] [^3 H]-amine, final concentration approximately 100 nM. Tissues were incubated for 4 minutes at 37° C., followed by rapid vacuum filtration over Whatman GF/B filters and washed with 50 mM Tris-HCl (pH=7.4). Nonspecific uptake was estimated in duplicate samples incubated at 0 ° C. Data were analyzed as described previously (J. F. DeBemardis, D. J. Kerkman, D. L. Arendsen, S. A. Buckner, J. J. Kyncl, and A. A. Hancock, Conformationally Defined Adrenergic Agents. 5. Resolution, Absolute Configuration, and Pharmacological Characterization of the Enantiomers of 2-[5,6-Dihyroxy-1,2,3,4-tetrahydro-1-1-naphthyl]imidazoline: A Potent Agonist at a-Adrenoceptors, Journal of Medicinal Chemistry 1987, 30: 1011-1017).

alpha-1 receptor = biological target: T1, alpha-1 receptor (Rattus norvegicus, UniProt P15823); assay: alpha-1 receptor radioligand binding, rat liver homogenates, [3H]-prazosin
T1 sequence (P15823 1-515): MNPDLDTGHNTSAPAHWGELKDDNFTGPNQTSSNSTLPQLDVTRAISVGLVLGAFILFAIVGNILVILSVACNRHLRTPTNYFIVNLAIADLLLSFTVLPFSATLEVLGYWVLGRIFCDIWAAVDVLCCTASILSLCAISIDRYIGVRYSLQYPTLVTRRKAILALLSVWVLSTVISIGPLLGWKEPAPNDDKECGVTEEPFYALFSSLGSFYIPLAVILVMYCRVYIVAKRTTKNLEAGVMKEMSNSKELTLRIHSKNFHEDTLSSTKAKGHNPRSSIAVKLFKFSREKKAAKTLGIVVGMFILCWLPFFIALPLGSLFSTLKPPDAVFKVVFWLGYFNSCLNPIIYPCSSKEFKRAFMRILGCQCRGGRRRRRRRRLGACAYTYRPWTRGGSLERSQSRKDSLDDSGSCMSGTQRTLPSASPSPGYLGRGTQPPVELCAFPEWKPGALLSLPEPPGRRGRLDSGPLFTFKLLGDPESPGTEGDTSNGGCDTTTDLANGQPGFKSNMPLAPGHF

serotonin (5-HT) uptake = assay: inhibition of [3H]-amine uptake by synaptosome preparations, cortex (serotonin); assay type: biochemical, rat (male Sprague-Dawley); conditions: cortex synaptosomes, [3H]-amine approx. 100 nM, 4 min, 37° C.; read-out: Biogenic amine uptake IC50 5-HT
Description: as §1

norepinephrine uptake = assay: inhibition of [3H]-amine uptake by synaptosome preparations, hypothalamus (norepinephrine); assay type: biochemical, rat (male Sprague-Dawley); conditions: hypothalamus synaptosomes, [3H]-amine approx. 100 nM, 4 min, 37° C.; read-out: Biogenic amine uptake IC50 NE
Description: as §1

In the case of COc1ccc2c(c1)CCN(C)C2CN1CCC(c2ccccc2)C1 (stereo not shown) [Example 1, 6-Methoxy-2-methyl-1-(3-phenylpyrrolidino)methyl-1,2,3,4-tetrahydroisoquinoline dihydrochloride], the pKi (alpha-2 receptor) was 8.21, the Alpha-2 selectivity Ki α1/Ki α2 (alpha-2 receptor) was 19 and the pIC50 (dopamine uptake) was 4.55. For the same compound, the pKi (alpha-1 receptor) was 6.92, the pIC50 (serotonin (5-HT) uptake) was 5.04 and the pIC50 (norepinephrine uptake) was 5.35.

In the case of COc1ccc2c(c1)CCN(C)C2CN(C)CCc1ccccc1 (stereo not shown) [Example 2, 6-Methoxy-2-methyl-1-((N-methyl-N-(2-phenylethyl)amino)methyl)-1,2,3,4-tetrahydroisoquinoline dihydrochloride], the pKi (alpha-2 receptor) was 8.34, the Alpha-2 selectivity Ki α1/Ki α2 (alpha-2 receptor) was 38 and the pIC50 (dopamine uptake) was 4.58. It also gave a pKi (alpha-1 receptor) of 6.76, a pIC50 (serotonin (5-HT) uptake) of 5.11 and a pIC50 (norepinephrine uptake) of 5.91.

Work on COc1cccc2c1CCN(C)C2CN1CCC(c2ccccc2)C1 (stereo not shown) [Example 3, 5-Methoxy-2-methyl-1-(3-phenylpyrrolidino)methyl-1,2,3,4-tetrahydroisoquinoline dihydrochloride] yielded a pKi (alpha-2 receptor) of 8.22, an Alpha-2 selectivity Ki α1/Ki α2 (alpha-2 receptor) of 51 and a pIC50 (dopamine uptake) of 5.03. It also gave a pKi (alpha-1 receptor) of 6.51, a pIC50 (serotonin (5-HT) uptake) of 5.35 and a pIC50 (norepinephrine uptake) of 6.21.

Work on CN(CCc1ccccc1)CC1c2ccc3c(c2CCN1C)OCO3 (stereo not shown) [Example 4, 5,6-Methylenedioxy-2-methyl-1-((N-methyl-N-(2-phenylethyl)amino)methyl)-1,2,3,4-tetrahydroisoquinoline dihydrochloride] yielded a pKi (alpha-2 receptor) of 8.59, an Alpha-2 selectivity Ki α1/Ki α2 (alpha-2 receptor) of 238 and a pIC50 (dopamine uptake) of 4.61. It also gave a pKi (alpha-1 receptor) of 6.21, a pIC50 (serotonin (5-HT) uptake) of 5.59 and a pIC50 (norepinephrine uptake) of 6.05.

CN1CCc2c(ccc3c2OCO3)C1CN1CCC(c2ccccc2)C1 (stereo not shown) [Example 5, 5,6-Methylenedioxy-2-methyl-1-N-(3-phenylpyrrolinodino)methyl-1,2,3,4-tetrahydroisoquinoline dihydrochloride] gave a pKi (alpha-2 receptor) of 8.37, an Alpha-2 selectivity Ki α1/Ki α2 (alpha-2 receptor) of 42 and a pIC50 (dopamine uptake) of 4.94. It also gave a pKi (alpha-1 receptor) of 6.74, a pIC50 (serotonin (5-HT) uptake) of 5.69 and a pIC50 (norepinephrine uptake) of 6.60.

With CN1CCc2cc3c(cc2C1CN1CCC(c2ccccc2)C1)OCO3 (stereo not shown) [Example 6, 6,7-Methylenedioxy-2-methyl-1-(3-phenylpyrrolidino)methyl-1,2,3,4-tetrahydroisoquinoline dimethanesulfonate] the pKi (alpha-2 receptor) was 7.94, the Alpha-2 selectivity Ki α1/Ki α2 (alpha-2 receptor) was 6 and the pKi (alpha-1 receptor) was 7.14.

Compound CN(CCc1ccccc1)CC1c2cc3c(cc2CCN1C)OCO3 (stereo not shown) [Example 7, 6,7-Methylenedioxy-2-methyl-1-((N-methyl-N-(2-phenylethyl)amino)methyl)-1,2,3,4-tetrahydroisoquinoline dihydrochloride] has a pKi (alpha-2 receptor) of 8.19, an Alpha-2 selectivity Ki α1/Ki α2 (alpha-2 receptor) of 96 and a pIC50 (dopamine uptake) of 4.30. The pKi (alpha-1 receptor) was 6.21, the pIC50 (serotonin (5-HT) uptake) was 5.20 and the pIC50 (norepinephrine uptake) was 6.23.

CN1CCc2c(ccc3c2OCO3)[C@@H]1CN1CC[C@H](c2ccccc2)C1 [Example 8, 5,6-Methylenedioxy-2-methyl-1(R)-(3'(R)-phenylpyrrolidino)methyl-1,2,3,4-tetrahydroisoquinoline dihydrochloride] gave a pKi (alpha-2 receptor) of 8.60, an Alpha-2 selectivity Ki α1/Ki α2 (alpha-2 receptor) of 178 and a pIC50 (dopamine uptake) of 5.03. The pKi (alpha-1 receptor; read-out: Radioligand binding Ki α1, rat liver homogenates, [3H]-prazosin) was 6.35, the pIC50 (serotonin (5-HT) uptake) was 5.96 and the pIC50 (norepinephrine uptake) was 6.31.

For CN1CCc2c(ccc3c2OCO3)[C@@H]1CN1CC[C@@H](c2ccccc2)C1 [Example 9, 5,6-Methylenedioxy-2-methyl-1(R)-[3'(S)-phenylpyrrolidino]methyl-1,2,3,4-tetrahydroisoquinoline dihyrochloride], the pKi (alpha-2 receptor) was 8.68, the Alpha-2 selectivity Ki α1/Ki α2 (alpha-2 receptor) was 80 and the pIC50 (dopamine uptake) was 5.02. It also gave a pKi (alpha-1 receptor) of 6.77, a pIC50 (serotonin (5-HT) uptake) of 5.80 and a pIC50 (norepinephrine uptake) of 6.37.

With CN1CCc2c(ccc3c2OCO3)[C@H]1CN1CC[C@H](c2ccccc2)C1 [Example 10, 5,6-Methylenedioxy-2-methyl-1(S)-[3'(R)-phenylpyrrolidino]methyl-1,2,3,4-tetrahydroisoquinoline dihydrochloride] the pKi (alpha-2 receptor) was 7.69, the Alpha-2 selectivity Ki α1/Ki α2 (alpha-2 receptor) was 18.5 and the pIC50 (dopamine uptake) was 4.93. For the same compound, the pKi (alpha-1 receptor) was 6.43, the pIC50 (serotonin (5-HT) uptake) was 6.12 and the pIC50 (norepinephrine uptake) was 6.67.

For CN1CCc2c(ccc3c2OCO3)[C@H]1CN1CC[C@@H](c2ccccc2)C1 [Example 11, 5,6-Methylenedioxy-2-methyl-1(S)-[3'(S)-phenylpyrrolidino]methyl-1,2,3,4-tetrahydroisoquinoline dihydrochloride], the pKi (alpha-2 receptor) was 7.49, the Alpha-2 selectivity Ki α1/Ki α2 (alpha-2 receptor) was 4.8 and the pIC50 (dopamine uptake) was 5.31. The pKi (alpha-1 receptor) was 6.80, the pIC50 (serotonin (5-HT) uptake) was 5.77 and the pIC50 (norepinephrine uptake) was 6.94.

In the case of CN(CCc1ccccc1)C[C@H]1c2ccc3c(c2CCN1C)OCO3 [Example 12, 5,6-Methylenedioxy-2-methyl-1(R)-(((N-methyl-N-phenylethyl)amino)methyl)-1,2,3,4-tetrahydroisoquinoline dihydrochloride], the pKi (alpha-2 receptor) was 9.01, the Alpha-2 selectivity Ki α1/Ki α2 (alpha-2 receptor) was 1040 and the pIC50 (dopamine uptake) was 4.59. The pKi (alpha-1 receptor) was 5.99, the pIC50 (serotonin (5-HT) uptake) was 5.85 and the pIC50 (norepinephrine uptake) was 5.89.

CN(CCc1ccccc1)C[C@@H]1c2ccc3c(c2CCN1C)OCO3 [Example 13, 5,6-Methylenedioxy-2-methyl-1(S)-(((N-methyl-N-phenylethyl)amino)methyl-1,2,3,4-tetrahydroisoquinolinedihydrochloride] showed a pKi (alpha-2 receptor) of 8.15, an Alpha-2 selectivity Ki α1/Ki α2 (alpha-2 receptor) of 76 and a pIC50 (dopamine uptake) of 4.98. The pKi (alpha-1 receptor) was 6.27, the pIC50 (serotonin (5-HT) uptake) was 5.54 and the pIC50 (norepinephrine uptake) was 6.68.

CNCCC(Oc1ccc(C(F)(F)F)cc1)c1ccccc1 (stereo not shown) [Fluoxetine, reference compound] gave a pIC50 (dopamine uptake) of 4.82 and a pIC50 (norepinephrine uptake) of 5.88.

In the case of COC(=O)[C@H]1[C@H]2C[C@H]3c4[nH]c5ccccc5c4CCN3C[C@H]2CC[C@@H]1O [Rauw*, Rauwolscine, reference compound], the pKi (alpha-1 receptor) was 6.35 and the pIC50 (norepinephrine uptake) was less than 7.00.
